Measured values reported in patent US10696693B2, “Fused imidazole derivatives as TGF-beta inhibitors” (Rigel Pharmaceuticals, Inc., priority 2014, dated 2020).
Like-named read-outs stand apart in the source and are kept apart here.

Experiments:
GDF8 = test: AlphaScreen SureFire p-SMAD3 (Ser423/425) assay, GDF8-stimulated cells; format: cell-based; settings: Mus musculus
Text: (§1) The p-SMAD-3 (Ser423/425) SureFire® assay has been designed to measure the phosphorylation of endogenous cellular p-SMAD-3 (Ser423/425) in cell lysates and is a system for the screening of both modulators of receptor activation (e.g. agonists and antagonists) as well as agents acting intracellularly, such as small molecule inhibitors of upstream events. The assay will measure p-SMAD-3 (Ser423/425) activation by either cloned or endogenous receptors, and can be applied to primary cells.
(§2) 96-well Assay Protocol for 293FT and RMS13 adherent cells can be carried out manually or in high throughput with liquid handling robots.
(§3) The cells (80 μL of cells for 96 well plates) were plated in collagen coated tissue culture plates in RPMI or FreeStyle medium (Invitrogen) and incubated overnight. For manual analysis, 6 plates for GDF8, 6 plates for TGFβ, and optionally 6 plates for Alk5ca(ALK5 constitutively active) were used.
(§4) The compound dilution plates were prepared as follows: 12 μL of DMSO was transferred into first column of 96-well plate, and 16 μL of DMSO was transferred into columns 2-12 of the 96-well plate. 12 μL of compound solution was transferred into first column of the DMSO-containing 96-well plate. Three-fold dilution was performed up to column 10 of the DMSO-containing 96-well plate.
(§5) The plate containing cells were treated with compounds for about 10 minutes, and then ligand was added. GDF8 or TGFb was added to plates to stimulate. 293FL cells were stimulatedfor 90 minutes at 37° C.; and RMS13 cells were stimulated for 60 minutes at 37° C. The medium was then removed from the cells, and 1× Lysis Buffer (about 25 μL) was added and the plate was gently agitated on plate shaker for 5-10 minutes.
(§6) The lysate (5 μL) was then placed into 384-well shallow plates avoiding the generation of bubbles. To this, the Reaction Buffer+Activation Buffer+AlphaScreen® Acceptor beadsmixture (5 μL) was added. The plate was sealed with adhesive cover and shielded from light (e.g., with metal foil), and agitated gently on plate shaker for 2 hours at room temperature.
(§7) Dilution buffer+AlphaScreen® Donor beads (2 μL) was then added, and the plate was intubated on the plate shaker for an additional 1½ hours. After completion, the plate was read on Synergy-4 or Enspire plate reader, using AlphaScreen® pSMAD3® settings.
(§8) Representative results for inhibition of GDF8 (data=GDF pSMAD (MPC11) (μM)) and TGF-β (data=TGF-β pSMAD (MPC-11) (μM)) signaling are shown in Table 1(A=<0.05 μM, B=0.05−<0.1 μM, C=0.1−<1.0 μM, D=>1.0 μM): […]

TGF-β = test: AlphaScreen SureFire p-SMAD3 (Ser423/425) assay, TGF-β-stimulated cells; format: cell-based; settings: Mus musculus
Text: as §1, §2, §3, §4, §5, §6, §7, §8

[1] = MPC-11, p-SMAD3 (Ser423/425) AlphaScreen in cell lysate, MPC11, GDF8 stimulation, read-out: GDF8: inhibition of GDF8 signaling, GDF pSMAD (MPC11)
[2] = p-SMAD3 (Ser423/425) AlphaScreen in cell lysate, MPC-11, TGF-β stimulation, read-out: TGF-β: inhibition of TGF-β signaling, TGF-β pSMAD (MPC-11)
[3] = MPC-11, read-out: GDF8: inhibition of GDF8 signaling, GDF pSMAD (MPC11), p-SMAD3 (Ser423/425) AlphaScreen in cell lysate, GDF8 stimulation
[4] = MPC-11, read-out: TGF-β: inhibition of TGF-β signaling, TGF-β pSMAD (MPC-11), p-SMAD3 (Ser423/425) AlphaScreen in cell lysate, TGF-β stimulation

IC50 (GDF8; [1])	IC50 (TGF-β; [2])	Compound	IC50 (GDF8; [3])	IC50 (TGF-β; [4])
< 50 nM	< 50 nM	Fc1cc(F)c(-c2nc3occn3c2-c2ccc3ncsc3c2)cc1F [Compound 151, 5-(benzo[d]thiazol-6-yl)-6-(2,4,5-trifluorophenyl)imidazo[2,1-b]oxazole]	–	–
< 50 nM	< 50 nM	Fc1cc(F)c(F)c(-c2nc3n(c2-c2cc4cnccc4s2)CCN3)c1 [Compound 112, 2-(6-(2,3,5-trifluorophenyl)-2,3-dihydro-1H-imidazo[1,2-a]imidazol-5-yl)thieno[3,2-c]pyridine]	–	–
< 50 nM	< 50 nM	Nc1ncnc2ccc(-c3c(-c4cc(Cl)ccc4F)nc4n3CCC4)cc12 [Compound 346, 6-(2-(5-chloro-2-fluorophenyl)-6,7-dihydro-5H-pyrrolo[1,2-a]imidazol-3-yl)quinazolin-4-amine]	–	–
100 to 1000 nM	> 1000 nM	Fc1ccc(-c2nc3n(c2-c2ccc4ncnn4c2)CCC3)c(F)c1F [Compound 15, 6-(2-(2,3,4-trifluorophenyl)-6,7-dihydro-5H-pyrrolo[1,2-a]imidazol-3-yl)-[1,2,4]triazolo[1,5-a]pyridine]	–	–
100 to 1000 nM	100 to 1000 nM	Fc1ccc(F)c(-c2nc3n(c2-c2ccc4ncsc4c2)CCC3)c1F [Compound 222, 6-(2-(2,3,6-trifluorophenyl)-6,7-dihydro-5H-pyrrolo[1,2-a]imidazol-3-yl)benzo[d]thiazole]	–	–
50 to 100 nM	50 to 100 nM	Fc1cc(F)c(F)c(-c2nc3n(c2-c2ccc4ncnn4c2)CCCN3)c1 [Compound 166, 6-(2-(2,3,5-trifluorophenyl)-5,6,7,8-tetrahydroimidazo[1,2-a]pyrimidin-3-yl)-[1,2,4]triazolo[1,5-a]pyridine]	–	–
–	–	Fc1cc(-c2nc3n(c2-c2ccc4ncsc4c2)CCC3)cc(F)c1F [Compound 229, 6-(2-(3,4,5-trifluorophenyl)-6,7-dihydro-5H-pyrrolo[1,2-a]imidazol-3-yl)benzo[d]thiazole]	100 to 1000 nM	> 1000 nM
–	–	NC(=O)C1CCC2(CC1)Cc1nc(-c3ccc(F)cc3)c(-c3ccc4ncnn4c3)n1C2 (stereo not drawn) [Compound 80, 3′-([1,2,4]triazolo[1,5-a]pyridin-6-yl)-2′-(4-fluorophenyl)-5′H,7′H-spiro[cyclohexane-1,6′-pyrrolo[1,2-a]imidazole]-4-carboxamide]	> 1000 nM	> 1000 nM
> 1000 nM	> 1000 nM	Fc1cc(-c2nc3n(c2-c2ccc4[nH]ncc4c2)CCC3)c(F)cc1Cl [Compound 239, 5-(2-(4-chloro-2,5-difluorophenyl)-6,7-dihydro-5H-pyrrolo[1,2-a]imidazol-3-yl)-1H-indazole]	–	–
> 1000 nM	> 1000 nM	Cc1cc(-c2nc3n(c2-c2ccc4ncsc4c2)CCC3)cc(C)c1Cl [Compound 244, 6-(2-(4-chloro-3,5-dimethylphenyl)-6,7-dihydro-5H-pyrrolo[1,2-a]imidazol-3-yl)benzo[d]thiazole]	–	–
50 to 100 nM	50 to 100 nM	Nc1ncnc2ccc(-c3c(-c4cc(F)cc(F)c4F)nc4n3CCN4)cc12 [Compound 113, 6-(6-(2,3,5-trifluorophenyl)-2,3-dihydro-1H-imidazo[1,2-a]imidazol-5-yl)quinazolin-4-amine]	–	–
–	–	Cc1c(F)ccc(-c2nc3n(c2-c2ccc4ncsc4c2)CCC3)c1C [Compound 329, 6-(2-(4-fluoro-2,3-dimethylphenyl)-6,7-dihydro-5H-pyrrolo[1,2-a]imidazol-3-yl)benzo[d]thiazole]	100 to 1000 nM	> 1000 nM
< 50 nM	50 to 100 nM	Cc1cc(F)c(F)cc1-c1nc2n(c1-c1ccc3ncc(C(N)=O)n3c1)CCC2 [Compound 52, 6-(2-(4,5-difluoro-2-methylphenyl)-6,7-dihydro-5H-pyrrolo[1,2-a]imidazol-3-yl)imidazo[1,2-a]pyridine-3-carboxamide]	–	–
< 50 nM	50 to 100 nM	Fc1cc(F)c(-c2nc3occn3c2-c2ccc3nccnc3c2)cc1F [Compound 149, 5-(quinoxalin-6-yl)-6-(2,4,5-trifluorophenyl)imidazo[2,1-b]oxazole]	–	–
–	–	Fc1cccc(-c2nc3n(c2-c2ccc4cn[nH]c4c2)CCC3)c1 [Compound 194, 6-(2-(3-fluorophenyl)-6,7-dihydro-5H-pyrrolo[1,2-a]imidazol-3-yl)-1H-indazole]	100 to 1000 nM	> 1000 nM
–	–	Fc1ccc(Cl)cc1-c1nc2n(c1-c1ccc3ncc(-n4ccnc4)nc3c1)CCC2 [Compound 360, 7-(2-(5-chloro-2-fluorophenyl)-6,7-dihydro-5H-pyrrolo[1,2-a]imidazol-3-yl)-2-(1H-imidazol-1-yl)quinoxaline]	< 50 nM	< 50 nM
–	–	O=C(O)C1CCC2(CC1)Cc1nc(-c3ccc(F)cc3)c(-c3ccc4ncsc4c3)n1C2 (stereo not drawn) [Compound 332, 3′-(benzo[d]thiazol-6-yl)-2′-(4-fluorophenyl)-5′H,7′H-spiro[cyclohexane-1,6′-pyrrolo[1,2-a]imidazole]-4-carboxylic acid]	100 to 1000 nM	> 1000 nM
< 50 nM	50 to 100 nM	c1ccc(C2=C(c3ccc4cn[nH]c4c3)C3CCCC3=N2)nc1 (stereo not drawn) [Compound 366, 6-(2-(pyridin-2-yl)-3a,4,5,6-tetrahydrocyclopenta[b]pyrrol-3-yl)-1H-indazole]	–	–
50 to 100 nM	100 to 1000 nM	Fc1ccc(-c2nc3n(c2-c2ccc4cn[nH]c4c2)CCC3)c(F)c1 [Compound 202, 6-(2-(2,4-difluorophenyl)-6,7-dihydro-5H-pyrrolo[1,2-a]imidazol-3-yl)-1H-indazole]	–	–
> 1000 nM	> 1000 nM	Cc1ccc(-c2nc3n(c2-c2ccc4nccnc4c2)CCC3)c(F)c1F [Compound 250, 6-(2-(2,3-difluoro-4-methylphenyl)-6,7-dihydro-5H-pyrrolo[1,2-a]imidazol-3-yl)quinoxaline]	–	–
> 1000 nM	> 1000 nM	Cc1cc(-c2nc3n(c2-c2ccc4nccnc4c2)CCC3)cc(C)c1F [Compound 278, 6-(2-(4-fluoro-3,5-dimethylphenyl)-6,7-dihydro-5H-pyrrolo[1,2-a]imidazol-3-yl)quinoxaline]	–	–
100 to 1000 nM	100 to 1000 nM	Fc1ccc(-c2nc3n(c2-c2ccc4ncsc4c2)CCC3)cc1F [Compound 207, 6-(2-(3,4-difluorophenyl)-6,7-dihydro-5H-pyrrolo[1,2-a]imidazol-3-yl)benzo[d]thiazole]	–	–
100 to 1000 nM	100 to 1000 nM	Cc1c(F)ccc(-c2nc3n(c2-c2ccc4nccn4c2)CCC3)c1F [Compound 46, 6-(2-(2,4-difluoro-3-methylphenyl)-6,7-dihydro-5H-pyrrolo[1,2-a]imidazol-3-yl)imidazo[1,2-a]pyridine]	–	–
100 to 1000 nM	> 1000 nM	Fc1cc(-c2nc3n(c2-c2ccc4ncccc4c2)CCC3)cc(F)c1F [Compound 247, 6-(2-(3,4,5-trifluorophenyl)-6,7-dihydro-5H-pyrrolo[1,2-a]imidazol-3-yl)quinoline]	–	–
100 to 1000 nM	> 1000 nM	Cc1c(F)ccc(-c2nc3n(c2-c2ccc4ncccc4c2)CCC3)c1F [Compound 283, 6-(2-(2,4-difluoro-3-methylphenyl)-6,7-dihydro-5H-pyrrolo[1,2-a]imidazol-3-yl)quinoline]	–	–
–	–	Cc1cccc(-c2nc3n(c2-c2ccc4ncsc4c2)CCC3)n1 [Compound 364, 6-(2-(6-methylpyridin-2-yl)-6,7-dihydro-5H-pyrrolo[1,2-a]imidazol-3-yl)benzo[d]thiazole]	–	< 50 nM
